Measurements reported in patent US4962020A, “DNA sequencing” (President and Fellows of Harvard College, priority 1988, dated 1990).
Like-named read-outs stand apart in the source and are kept apart here.

How the values were obtained:
DNA polymerase = assay: ddNTP versus dNTP incorporation (discrimination) in primer extension / sequencing reaction with metal ions; assay type: biochemical; conditions: for effect of cation on DNA synthesis / sequencing reaction: monovalent and divalent cations tested
Description: In order to determine whether any particular DNA polymerase, in combination with any particular chain terminating agent, or other component of a sequencing reaction mixture, is useful in this invention, a standard sequencing reaction is performed, as described below and shown in the drawings, and the extent of band formation, and the uniformity of nearby bands in a sequencing gel, reviewed. […] Adjacent band uniformity within a two-fold or less range is useful in this invention, preferably the uniformity is within a 1.0-1.5 fold range. Similarly, determination of optimum cation concentration, or of other potential cations useful in the invention, is determined by use of this sequencing reaction under various conditions. For example, cations are tested in ranges from 0.005-100 mM. An example of such an experiment follows:
DNA synthesis is measured using a 17-mer primer of sequence 5'-[…]-3' (New England Biolabs catalog number 1211) that has been labeled with ^32 P at its 5' end and annealed to single-stranded mGPl-2 DNA. Tabor et al., proc. Nat. Acad. Sci. USA 84:4767 (1987) and Tabor et al., J. Biol. Chem. 262:16212 (1987). Any other template is equally useful in this reaction. This primer-template is used in a reaction that contains a DNA polymerase in the presence of a range of concentrations of a metal ion. Reactions are carried out in the presence of a given concentration of all 4 deoxynucleotides (dNTPS, 20-200 μM), and over a range of concentrations of one dideoxynucleotide (ddNTP, in this example, ddGTP from 10-500 μM). The DNA products are then analyzed by polyacrylamide gel electrophoresis, where DNA synthesis is detected as extensions of the primer producing bands, representing extensions of various molecular weights, in the gel.
In a specific example, each reaction mixture (10μl) contained 0.1 μg^32 P-primer-template, 40 mM Tris-HCl pH 7.5, 5 mM dithiothreitol (DTT) 5μM to 20mM metal ion, 10 to 500 μM 4dNTPs, 1 to 500 μM ddNTPs, and 2 units of a DNA polymerase. Incubation was at 37° C. for 15 min. The reaction was stopped by addition of 10μl of 90% formamide, 50 mM EDTA, and 0.1% bromophenol blue.
Electrophoresis was at 2000 volts for 2 hours. The gel was fixed in 50% methanol, 10% acetic acid for 30 min., dried, and exposed, for autoradiography. Band intensity in each lane of the resulting film was determined by scanning each lane with a densitometer. The densitometer used was a double-beam recording instrument, model MkIIIC (Joyce, Loebl & Co., Ltd., Gateshead-on-tyne, II, England). Any suitable densitometer instrument for scanning gels will also work. Alternatively, the uniformity of the resulting bands can be determined by scanning the DNA products as they are electrophoresed within the gel.
The ability to incorporate a given ddNTP compared to the corresponding dNTP for any one enzyme is measured as the ratio of ddNTP to dNTP necessary to allow DNA synthesis that terminates in a fixed range, detected as producing bands of no greater than a fixed molecular weight. That is, the bands produced in the reaction end within a specified range in the sequencing gel. Thus, if one enzyme discriminates 1000-fold greater against a given ddNTP compared to another enzyme, a 1000-fold higher ratio of ddNTP to dNTP will be necessary to obtain bands terminating at the corresponding sites in the same range of the gel.

[1] = biological target: genetically modified T7 DNA polymerase (ΔLys118-Arg145) (Escherichia phage T7, UniProt P00581, DEL118-145)
Sequence of genetically modified T7 DNA polymerase (ΔLys118-Arg145) (P00581 with tags, fused parts or gaps DEL118-145): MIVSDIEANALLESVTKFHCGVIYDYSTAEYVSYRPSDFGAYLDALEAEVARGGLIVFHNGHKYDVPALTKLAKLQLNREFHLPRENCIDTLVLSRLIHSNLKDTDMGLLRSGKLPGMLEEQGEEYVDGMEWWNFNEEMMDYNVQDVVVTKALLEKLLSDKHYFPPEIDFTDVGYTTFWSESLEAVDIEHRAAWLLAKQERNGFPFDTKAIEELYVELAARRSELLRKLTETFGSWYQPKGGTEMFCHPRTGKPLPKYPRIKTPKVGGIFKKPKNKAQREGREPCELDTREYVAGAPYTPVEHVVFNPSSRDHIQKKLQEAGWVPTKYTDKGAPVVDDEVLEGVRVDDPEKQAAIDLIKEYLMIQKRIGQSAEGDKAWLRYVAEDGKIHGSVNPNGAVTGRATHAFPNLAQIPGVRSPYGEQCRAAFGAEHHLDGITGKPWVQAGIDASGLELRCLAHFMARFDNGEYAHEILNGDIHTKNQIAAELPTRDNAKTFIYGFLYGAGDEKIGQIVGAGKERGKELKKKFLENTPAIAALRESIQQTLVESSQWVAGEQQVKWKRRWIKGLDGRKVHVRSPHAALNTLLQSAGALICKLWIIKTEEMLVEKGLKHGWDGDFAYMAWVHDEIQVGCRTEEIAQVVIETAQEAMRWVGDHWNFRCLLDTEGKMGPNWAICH

[2] = biological target: T1, genetically modified T7 DNA polymerase (Escherichia phage T7, UniProt P00581, DEL118-145); assay type: biochemical
T1 construct: made in house; host or cells: E. coli strain K38/pTrx-3/pGP5-8
T1 sequence (P00581 other isoform, or with tags, fused parts or gaps DEL118-145): as the sequence (P00581 with tags, fused parts or gaps DEL118-145) above
T1 sequence (P0AA25 2-109, stated change not applied, further chain): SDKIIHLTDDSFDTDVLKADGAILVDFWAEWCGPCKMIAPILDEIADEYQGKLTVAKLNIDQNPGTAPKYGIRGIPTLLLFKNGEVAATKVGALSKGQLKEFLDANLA

[Ba] [Ba]
effect of cation on DNA synthesis / sequencing reaction (DNA polymerase): no detectable effect, or are detrimental to DNA synthesis

[Be] [Be]
effect of cation on DNA synthesis / sequencing reaction (DNA polymerase): no detectable effect, or are detrimental to DNA synthesis

[Ca] [Ca]
effect of cation on DNA synthesis / sequencing reaction (DNA polymerase): no detectable effect, or are detrimental to DNA synthesis

[Ce] [Ce]
effect of cation on DNA synthesis / sequencing reaction (DNA polymerase): no detectable effect, or are detrimental to DNA synthesis

[Co] [Co]
effect of cation on DNA synthesis / sequencing reaction (DNA polymerase): no detectable effect, or are detrimental to DNA synthesis

[Cr] [Cr]
effect of cation on DNA synthesis / sequencing reaction (DNA polymerase): no detectable effect, or are detrimental to DNA synthesis

[Cu] [Cu]
effect of cation on DNA synthesis / sequencing reaction (DNA polymerase): no detectable effect, or are detrimental to DNA synthesis

[Na] [Na]
effect of cation on DNA synthesis / sequencing reaction (DNA polymerase): no detectable effect, or are detrimental to DNA synthesis

[Ni] [Ni]
effect of cation on DNA synthesis / sequencing reaction (DNA polymerase): no detectable effect, or are detrimental to DNA synthesis

[Si] [Si]
effect of cation on DNA synthesis / sequencing reaction (DNA polymerase): no detectable effect, or are detrimental to DNA synthesis

[Zn] [Zn]
effect of cation on DNA synthesis / sequencing reaction (DNA polymerase): no detectable effect, or are detrimental to DNA synthesis

O=c1[nH]cnc2c1ncn2[C@H]1CC[C@@H](COP(=O)(O)OP(=O)(O)OP(=O)(O)O)O1 [ddITP, dideoxy ITP, reference compound]
discrimination against ddITP compared to ddGTP (DNA polymerase; in the presence of Mn): 10 fold

O=C([O-])CC(C(=O)[O-])C(O)C(=O)[O-].[Na+].[Na+].[Na+] (stereo not drawn) [isocitrate, sodium isocitrate]
optimal isocitrate concentration [1]: 40 mM | effect of isocitrate on polymerase activity ([1]; 10 mM magnesium, any amount of isocitrate, FIG. 9): inhibitory effect on polymerase | stimulation of polymerase activity ([1]; t7 dna polymerase, 0.5 h, 40000 µM, pH 7.5): 4 fold

[Mg+2] [magnesium]
intensity of underlined bases in triplets versus adjacent bases ([2]; Example 1 sample run with magnesium in place of manganese): 2-5 fold | variation of nearby band intensity ([2]; all four ddNTPs at equal concentration, magnesium, FIG. 6): varies greatly | variation of nearby band intensity (peak height) ([2]; ddGTP only, magnesium instead of manganese, FIG. 3): ≤ 10 fold | optimum ion concentration in a sequencing reaction (polymerase activity) ([1]; absence of a chelator, FIG. 8): 20 mM

[Mn+2] [manganese]
difference in band intensity between bases in the triplets TCT, AAG, GCA, CCT ([2]; Example 1, manganese in sequencing buffer, densitometer): at most 20% | variation of nearby bands and peaks ([2]; all four ddNTPs at 0.75 μM each, manganese, FIG. 5): no more than 1.5 fold | optimum ion concentration in a sequencing reaction (polymerase activity) [1]: 1 mM | optimum manganese concentration [1]: 5 to 20 mM

Taq polymerase: DNA polymerase used for sequencing
lessening of the requirement for chain terminating agents (dideoxynucleosides) (DNA polymerase; in the presence of manganese or iron ions): ~1000 fold
